# System: cultured cells of Taxus baccata LINN
# Assay: Growth rate and taxane yield, 21-day shake culture of Taxus baccata cells with heavy metal compound, amine, antiethylene agent or Ethrel added
# Type: cell-based
# Method: (§1) One gram (fresh weight) of the callus was inoculated to an Erlenmeyer flask containing 20 ml of liquid Woody Plant Medium to which the above-mentioned component was added to give the same concentration and shake culture was carried out with a rotary shaker (amplification of 25 mm, 100 rpm) and the callus was subcultured in every 21 days to accelerate the growth rate thereof.
# Then shake culture was carried out at 25° C. for 21 days.
# (§2) After completing the culture, cultured cells of Taxus baccata LINN were harvested by filtration and lyophilized, then the dry weight was measured to obtain the growth rate thereof. Taxane-type diterpenes were extracted from the dried callus with methanol and the like, and they were determined by comparing with standard taxol, cephalomannine, and baccatin III using high performance liquid chromatography to measure the yields of the taxane-type diterpenes.
# as §1
# One gram (fresh weight) of the cultured cells thus obtained was inoculated to an Erlenmeyer flask containing 20 ml of liquid Woody Plant Medium to which the above-mentioned component had been added to give the same concentration, then spermidine was added to it as amine to give the final concentration of 10^−9M-1M. Then shake culture was carried out at 25° C. for 21 days.
# as §2, with “cells” for “callus”, “diterpene.” for “diterpenes.”
# as §1, with “component had been” for “component was”
# One gram (fresh weight) of the cultured cells thus obtained was inoculated to an Erlenmeyer flask containing 20 ml of liquid Woody Plant Medium to which the above-mentioned component had been added to give the same concentration, and shake culture was carried out at 25° C. for 14 days.
# [1] = 2×10^−6 M added 5 times at 4 days' intervals from day 0, total 10^−5 M
# [2] = 10^−1 M added at start, 21 days
# [3] = 10^−2 M added at start, 21 days
# [4] = 10^−3 M added at start, 21 days
# [5] = 10^−4 M added at start, 21 days
# [6] = 10^−5 M added at start, 21 days
# [7] = 10^−5 M added on 7th day, 14 more days
# [8] = 10^−5 M added on 14th day, 7 more days
# [9] = 10^−5 M added on 18th day, 3 more days
# [10] = 10^−5 M at start + methyl jasmonate 10^−4 M on 14th day
# [11] = 10^−5 M at start + methyl jasmonate 10^−4 M on 14th day, oxygen 10% in the gas phase
# [12] = 10^−5 M at start, oxygen 10% in the gas phase
# [13] = 10^−6 M added at start, 21 days
# [14] = 10^−7 M added at start, 21 days
# [15] = 10^−8 M added at start, 21 days
# [16] = 10^−9 M added at start, 21 days
compound,measurement,setting,value
[Cl][Co][Cl] [cobalt chloride],growth rate,"1 M added at start, 21 days",0.6 times
same,total yield of taxane,"1 M added at start, 21 days",0 mg/L
same,yield of baccatin III,"1 M added at start, 21 days",0 mg/L
same,yield of cephalomannine,"1 M added at start, 21 days",0 mg/L
same,yield of taxol,"1 M added at start, 21 days",0 mg/L
same,growth rate,[1],2.6 times
same,total yield of taxane,[1],27.66 mg/L
same,yield of baccatin III,[1],5.32 mg/L
same,yield of cephalomannine,[1],6.58 mg/L
same,yield of taxol,[1],15.76 mg/L
same,growth rate,[2],0.8 times
same,total yield of taxane,[2],1.08 mg/L
same,yield of baccatin III,[2],0.11 mg/L
same,yield of cephalomannine,[2],0.42 mg/L
same,yield of taxol,[2],0.55 mg/L
same,growth rate,[3],1.4 times
same,total yield of taxane,[3],2.14 mg/L
same,yield of baccatin III,[3],0.44 mg/L
same,yield of cephalomannine,[3],0.78 mg/L
same,yield of taxol,[3],0.92 mg/L
same,growth rate,[4],2.2 times
same,total yield of taxane,[4],7.98 mg/L
same,yield of baccatin III,[4],1.57 mg/L
same,yield of cephalomannine,[4],2.03 mg/L
same,yield of taxol,[4],4.38 mg/L
same,growth rate,[5],2.7 times
same,total yield of taxane,[5],10.02 mg/L
same,yield of baccatin III,[5],1.64 mg/L
same,yield of cephalomannine,[5],3.46 mg/L
same,yield of taxol,[5],4.92 mg/L
same,growth rate,[6],3.2 times
same,total yield of taxane,[6],28.29 mg/L
same,yield of baccatin III,[6],5.68 mg/L
same,yield of cephalomannine,[6],6.50 mg/L
same,yield of taxol,[6],16.11 mg/L
same,growth rate,[7],3.2 times
same,total yield of taxane,[7],20.56 mg/L
same,yield of baccatin III,[7],4.36 mg/L
same,yield of cephalomannine,[7],5.98 mg/L
same,yield of taxol,[7],10.22 mg/L
same,growth rate,[8],3.1 times
same,total yield of taxane,[8],13.48 mg/L
same,yield of baccatin III,[8],2.01 mg/L
same,yield of cephalomannine,[8],4.37 mg/L
same,yield of taxol,[8],7.10 mg/L
same,growth rate,[9],2.9 times
same,total yield of taxane,[9],3.60 mg/L
same,yield of baccatin III,[9],1.17 mg/L
same,yield of cephalomannine,[9],1.11 mg/L
same,yield of taxol,[9],1.32 mg/L
same,growth rate,[10],2.5 times
same,total yield of taxane,[10],62.78 mg/L
same,yield of baccatin III,[10],23.00 mg/L
same,yield of cephalomannine,[10],9.46 mg/L
same,yield of taxol,[10],30.32 mg/L
same,growth rate,[11],2.4 times
same,total yield of taxane,[11],74.83 mg/L
same,yield of baccatin III,[11],25.85 mg/L
same,yield of cephalomannine,[11],15.21 mg/L
same,yield of taxol,[11],33.77 mg/L
same,growth rate,[12],2.7 times
same,total yield of taxane,[12],52.24 mg/L
same,yield of baccatin III,[12],17.61 mg/L
same,yield of cephalomannine,[12],7.99 mg/L
same,yield of taxol,[12],26.64 mg/L
same,growth rate,[13],2.4 times
same,total yield of taxane,[13],16.36 mg/L
same,yield of baccatin III,[13],2.25 mg/L
same,yield of cephalomannine,[13],5.79 mg/L
same,yield of taxol,[13],8.32 mg/L
same,growth rate,[14],2.6 times
same,total yield of taxane,[14],1.08 mg/L
same,yield of baccatin III,[14],0.16 mg/L
same,yield of cephalomannine,[14],0.63 mg/L
same,yield of taxol,[14],0.29 mg/L
same,growth rate,[15],2.6 times
same,total yield of taxane,[15],1.05 mg/L
same,yield of baccatin III,[15],0.15 mg/L
same,yield of taxol,[15],0.29 mg/L
same,growth rate,[16],2.5 times
same,total yield of taxane,[16],0.98 mg/L
same,yield of baccatin III,[16],0.15 mg/L
same,yield of cephalomannine,[16],0.56 mg/L
same,yield of taxol,[16],0.27 mg/L
C=C [ethylene],production of the taxane-type diterpene by the tissues and the cells,,greatly inhibits
NCCCNCCCCNCCCN [spermin],growth rate,"1 M added at start, 21 days",1.0 times
same,total yield of taxane,"1 M added at start, 21 days",0.22 mg/L
same,yield of baccatin III,"1 M added at start, 21 days",0.10 mg/L
same,yield of cephalomannine,"1 M added at start, 21 days",0.04 mg/L
same,yield of taxol,"1 M added at start, 21 days",0.08 mg/L
same,growth rate,[2],1.4 times
same,total yield of taxane,[2],1.29 mg/L
same,yield of baccatin III,[2],0.39 mg/L
same,yield of cephalomannine,[2],0.32 mg/L
same,yield of taxol,[2],0.58 mg/L
same,growth rate,[3],2.1 times
same,total yield of taxane,[3],3.30 mg/L
same,yield of baccatin III,[3],0.70 mg/L
same,yield of cephalomannine,[3],1.54 mg/L
same,yield of taxol,[3],1.06 mg/L
same,growth rate,[4],2.0 times
same,total yield of taxane,[4],8.22 mg/L
same,yield of baccatin III,[4],0.76 mg/L
same,yield of cephalomannine,[4],2.68 mg/L
same,yield of taxol,[4],4.78 mg/L
same,growth rate,[5],2.3 times
same,total yield of taxane,[5],11.96 mg/L
same,yield of baccatin III,[5],1.64 mg/L
same,yield of cephalomannine,[5],4.09 mg/L
same,yield of taxol,[5],6.23 mg/L
same,growth rate,[6],2.1 times
same,total yield of taxane,[6],17.18 mg/L
same,yield of baccatin III,[6],2.09 mg/L
same,yield of cephalomannine,[6],5.63 mg/L
same,yield of taxol,[6],9.46 mg/L
same,growth rate,[13],2.4 times
same,total yield of taxane,[13],6.89 mg/L
same,yield of baccatin III,[13],0.89 mg/L
same,yield of cephalomannine,[13],1.97 mg/L
same,yield of taxol,[13],4.03 mg/L
same,growth rate,[14],2.4 times
same,total yield of taxane,[14],4.17 mg/L
same,yield of baccatin III,[14],0.68 mg/L
same,yield of cephalomannine,[14],1.32 mg/L
same,yield of taxol,[14],2.17 mg/L
same,growth rate,[15],2.3 times
same,total yield of taxane,[15],3.42 mg/L
same,yield of baccatin III,[15],0.62 mg/L
same,yield of cephalomannine,[15],1.01 mg/L
same,yield of taxol,[15],1.79 mg/L
same,growth rate,[16],2.9 times
same,total yield of taxane,[16],1.86 mg/L
same,yield of baccatin III,[16],0.50 mg/L
same,yield of cephalomannine,[16],0.64 mg/L
same,yield of taxol,[16],0.72 mg/L
NCCCCN [putrescine],growth rate,"1 M added at start, 21 days",1.0 times
same,total yield of taxane,"1 M added at start, 21 days",0.36 mg/L
same,yield of baccatin III,"1 M added at start, 21 days",0.01 mg/L
same,yield of cephalomannine,"1 M added at start, 21 days",0.22 mg/L
same,yield of taxol,"1 M added at start, 21 days",0.13 mg/L
same,growth rate,[2],1.1 times
same,total yield of taxane,[2],2.74 mg/L
same,yield of baccatin III,[2],0.80 mg/L
same,yield of cephalomannine,[2],0.97 mg/L
same,yield of taxol,[2],0.97 mg/L
same,growth rate,[3],1.8 times
same,total yield of taxane,[3],3.18 mg/L
same,yield of baccatin III,[3],1.13 mg/L
same,yield of cephalomannine,[3],0.99 mg/L
same,yield of taxol,[3],1.06 mg/L
same,growth rate,[4],2.2 times
same,total yield of taxane,[4],6.90 mg/L
same,yield of baccatin III,[4],1.95 mg/L
same,yield of cephalomannine,[4],1.88 mg/L
same,yield of taxol,[4],3.07 mg/L
same,growth rate,[5],2.6 times
same,total yield of taxane,[5],22.65 mg/L
same,yield of baccatin III,[5],6.60 mg/L
same,yield of cephalomannine,[5],5.25 mg/L
same,yield of taxol,[5],10.80 mg/L
same,growth rate,[6],3.1 times
same,total yield of taxane,[6],23.79 mg/L
same,yield of baccatin III,[6],6.98 mg/L
same,yield of cephalomannine,[6],5.37 mg/L
same,yield of taxol,[6],11.44 mg/L
same,growth rate,[13],3.0 times
same,total yield of taxane,[13],19.44 mg/L
same,yield of baccatin III,[13],5.74 mg/L
same,yield of cephalomannine,[13],5.51 mg/L
same,yield of taxol,[13],8.19 mg/L
same,growth rate,[14],2.7 times
same,total yield of taxane,[14],6.88 mg/L
same,yield of baccatin III,[14],1.10 mg/L
same,yield of cephalomannine,[14],2.31 mg/L
same,yield of taxol,[14],3.47 mg/L
same,growth rate,[15],2.8 times
same,total yield of taxane,[15],2.94 mg/L
same,yield of baccatin III,[15],0.40 mg/L
same,yield of cephalomannine,[15],1.02 mg/L
same,yield of taxol,[15],1.52 mg/L
same,growth rate,[16],2.8 times
same,total yield of taxane,[16],1.75 mg/L
same,yield of baccatin III,[16],0.36 mg/L
same,yield of cephalomannine,[16],0.70 mg/L
same,yield of taxol,[16],0.69 mg/L

# — patent publication US6403343B2, “Method of producing a taxane-type diterpene and a method of obtaining cultured cells which produce the taxane-type dilterpene at a high rate” (Mitsui Chemicals, Inc., priority 1993, dated 2002)
